The values below come from patent US12324813B2, “Method and pharmaceutical composition for rescuing retinal degeneration” (Taipei Veterans General Hospital, priority 2023, dated 2025).

Entries after “also recorded” stand apart in the source; their conditions may differ.

The test system of assay [1] is ARPE-19 cells. The assay can be described thus: Live imaging of GFP-LC3-RFP-LC3AG reporter in ARPE-19 cells. The settings on record: ARPE-19, BCI under NaIO3-induced oxidative stress. Format: cell-based. From the text: Furthermore, to estimate the autophagic flux in BCI-treated ARPE-19 cells, we introduced the GFP-LC3-RFP-LC3AG gene into ARPE-19 cells and monitored live images taken after BCI treatment.

In assay [2] the test system is ARPE-19 cells. The assay can be described thus: Immunocytochemistry / immunofluorescence staining of ARPE-19 cells. The format is cell-based. As to the method:
In vitro, the cells were seeded in 24-well plates at a density of 2×10^5 per well and incubated at 37° C. with 5% CO2 for 24 h. […] After rinsing three times with PBS, the cells were permeabilized and blocked with a blocking solution (0.3% BSA and 0.1% Triton X-100 in PBS) at room temperature for 1 h. After blocking, cells were incubated with primary antibodies overnight at 4° C. The primary antibodies include DUSP6 (Abcam, Cambridge, UK), Phospho-ERK1/2 (Cell Signaling, Danvers, MA, USA), LC3B (Novus, Centennial, CO, USA), and SQSTM1/p62 (Abcam, Cambridge, UK). After incubation, cells were washed three times with PBST (0.1% Triton X-100 in PBS). Secondary antibodies (1:700) were applied for 3 h at room temperature. The secondary antibodies include IgG Alexa 488 goat anti-rabbit IgG and Alexa 594 goat anti-mouse IgG. Nuclei were stained with DAPI (1:1000) for 10 min at 4° C. and slides were observed by a light microscope (Olympus America, Melville, NY, USA). In vivo, the sample slices were pretreated with bleaching solution (1% NaH2PO4 and 2.5% H2O2) overnight at room temperature. Next, the primary antibodies, including DUSP6, Phospho-ERK1/2, LC3B, SQSTM1/p62, and RPE65, were incubated with the sample slices overnight at 4° C. After incubation, the samples were washed three times with PBST. Tests with secondary antibodies (1:700) were conducted for 1 h at room temperature. The secondary antibodies included IgG Alexa 488 goat anti-rabbit IgG and Alexa 594 goat anti-mouse IgG. After treating them with mounting solution, the slides were observed by a fluorescence microscope (Olympus America, Melville, NY, USA).

Assay [3] has as its system ARPE-19 cells. As to the kind of experiment: Immunoblotting analysis of treated ARPE-19 cells. The format is cell-based. The procedure: Cells were treated with the autophagy inhibitor Bafilomycin A1 (Sigma, Saint Louis, MO, USA) at 75 nM or DUSP6 inhibitor BCI (Sigma, Saint Louis, MO, USA) at 1.25 μM or 2.5 μM for 6 h at 37° C. Proteins were collected after treatment for further study. C57BL/6N mice were sacrificed and their eyes were collected. The excess muscle tissue outside the sclera was removed and then a needle was used to make a hole in the cornea then remove the whole cornea. Next, we eliminated the lens and retina, and finally lysed the remaining tissue RIPA buffer (10× Merck Millipore, Temecula, CA, USA) containing with 1% protease inhibitor. Meanwhile, in vitro ARPE-19 cells were collected and lysed with RIPA buffer containing with 1% protease inhibitor. Subsequently, cell lysates were centrifuged for 10 min at 4° C. and the supernatants were collected. Next, the protein concentrations were measured via the BCA Protein Quantification Kit. An equal weight of total protein was separated by electrophoresis on SDS/PAGE. After the proteins were transferred onto polyvinylidene difluoride (PVDF) membranes (Millipore, Bedford, MA, USA), the membranes were incubated with blocking buffer (1×TBST and 5% skim milk) for 1 h at room temperature. After the blocking step, the membranes were incubated with the following primary antibodies at 4° C. overnight: DUSP6 (Abcam, Cambridge, UK), Phospho-ERK1/2 (Cell Signaling, Danvers, MA, USA), ERK1/2 (Cell Signaling, Danvers, MA, USA), LC3B (Novus, Centennial, CO, USA), SQSTM1/p62 (Abcam, Cambridge, UK), LAMP2 (Abcam, Cambridge, UK), Beclin-1 (Cell Signaling, Danvers, MA, USA), and Bactin (Sigma, Saint Louis, MO, USA). Next, membranes were washed three times with TBST and incubated with HRP-conjugated secondary antibodies including Goat anti-mouse IgG (Invitrogen, Carlsbad, CA, USA) and Goat anti-rabbit IgG (Invitrogen, Carlsbad, CA, USA) for 1 h at RT. The antigen-antibody complexes were detected by an enhanced chemiluminescence (ECL) substrate kit (Bioman, Millipore, Bedford, MA, USA). Bands were analyzed and quantified by the ImageJ (NIH, Bethesda, MD, USA) analysis software.

In another assay the test system is C57BL/6N mice. As to the kind of experiment: DUSP6 inhibitor (BCI) treatment in NaIO3-treated mice. The format is in vivo. The source says:
Retina samples were fixed with 4% paraformaldehyde (Sigma, Saint Louis, MO, USA) overnight, followed by 1×PBS. The methodology used for fixation, dehydration, clearing, infiltration, and embedding was developed according to that of Bio-Check Laboratories. […] The morphology of the retina was observed using a light microscope (Olympus America, Melville, NY, USA). Next, the thicknesses of the retina, defined as the distance between the inner limiting membrane, Bruch's membrane, and the outer nuclear layer (ONL), were measured by Image J (NIH, Bethesda, Maryland, USA). In vitro, the cells were seeded in 24-well plates at a density of 2×10^5 per well and incubated at 37° C. with 5% CO2 for 24 h. […] After rinsing three times with PBS, the cells were permeabilized and blocked with a blocking solution (0.3% BSA and 0.1% Triton X-100 in PBS) at room temperature for 1 h. After blocking, cells were incubated with primary antibodies overnight at 4° C. The primary antibodies include DUSP6 (Abcam, Cambridge, UK), Phospho-ERK1/2 (Cell Signaling, Danvers, MA, USA), LC3B (Novus, Centennial, CO, USA), and SQSTM1/p62 (Abcam, Cambridge, UK). After incubation, cells were washed three times with PBST (0.1% Triton X-100 in PBS). Secondary antibodies (1:700) were applied for 3 h at room temperature. The secondary antibodies include IgG Alexa 488 goat anti-rabbit IgG and Alexa 594 goat anti-mouse IgG. Nuclei were stained with DAPI (1:1000) for 10 min at 4° C. and slides were observed by a light microscope (Olympus America, Melville, NY, USA). In vivo, the sample slices were pretreated with bleaching solution (1% NaH2PO4 and 2.5% H2O2) overnight at room temperature. Next, the primary antibodies, including DUSP6, Phospho-ERK1/2, LC3B, SQSTM1/p62, and RPE65, were incubated with the sample slices overnight at 4° C. After incubation, the samples were washed three times with PBST. Tests with secondary antibodies (1:700) were conducted for 1 h at room temperature. The secondary antibodies included IgG Alexa 488 goat anti-rabbit IgG and Alexa 594 goat anti-mouse IgG. After treating them with mounting solution, the slides were observed by a fluorescence microscope (Olympus America, Melville, NY, USA). […] The structure of the retina was analyzed by real-time images and H & E staining. Proteins were collected from retina for further study.

Assay [4] relates to ARPE-19 cells. As to the kind of experiment: qRT-PCR of p62 mRNA in ARPE-19 cells. The settings on record: ARPE-19 co-treated with BCI and NaIO3 for 6 hours. The format is cell-based. The procedure: The cDNA was diluted to 200 ng/μL with sterile water and mixed with SYBR PCR Master Mix and primers. Amplification reaction was performed in a thermal cycler according to the manufacturer's instructions. mRNA abundance was quantified using the threshold cycle method. The mRNA expression of GAPDH was used as an internal control for normalization.

Where [5] appears, read: NaIO3 30 mg/kg i.p. then BCI 0.5 mg/kg intravitreal.
Setting [6] is: NaIO3-treated ARPE-19 cells with Baf-A1 75 nM.

With `Cl.O=C1/C(=C/c2ccccc2)C(NC2CCCCC2)c2ccccc21` (mixture of isomers) [BCI, (E/Z)-BCI hydrochloride], the “GFP / RFP LC3 signal (late-stage autophagy)” value in the assay with ARPE-19 cells [1] was “GFP-positive signal being shifted to an RFP-positive signal”. In addition, the “autophagosomes (fluorescence images)” value with ARPE-19 cells [2] (ARPE-19, BCI 1.25 μM, oxidative conditions) is listed as “aggregation of autophagosomes”. Moreover, the “speckles of p-ERK” value in the assay on ARPE-19 cells [2] (ARPE-19, BCI with or without NaIO3) is listed as “increased after BCI treatment, despite the presence or absence of NaIO3”. Moreover, the “perinuclear p62 punctate” value with ARPE-19 cells [2] (ARPE-19 co-treated with NaIO3 and BCI) is “significantly upregulated”. The “cell-cell junction (tight junction marker ZO-1)” value in the assay with ARPE-19 cells [2] (RPE cells, NaIO3 vs control, BCI co-treatment) is given as “rescue the cell-cell junction”. The “p-ERK/ERK ratio (ERK activity)” value in the assay with ARPE-19 cells [3] (NaIO3-treated ARPE-19, BCI 1.25 and 2.5 μM, 6 h) is reported as “significantly increased in NaIO3-treated cells after BCI treatment in a dose-dependent manner”. The “autophagic markers (immunoblotting)” value with ARPE-19 cells [3] (NaIO3-treated ARPE-19, BCI 1.25 and 2.5 μM, hydrochloride) is on record as “upregulation of autophagic markers upon BCI treatment in a dose-dependent manner; also recorded: also upregulated”. Also, the “ONL disorganization (H & E)” value with C57BL/6N mice (BCI 0.5 mg/kg intravitreal in presence of NaIO3-induced oxidative stress) is recorded as “alleviated”. Besides, in the assay on C57BL/6N mice (BCI group vs NaIO3 group), the ONL thickness entry was “restored the ONL thickness”. For the same molecule, the “melanin deposition on the retina” value with C57BL/6N mice (BCI group vs mice treated with NaIO3 only) is on record as “significantly reduced”. Moreover, in the assay on C57BL/6N mice (setting [5]), the “co-localization of LC3B and p62 between the ONL and RPE layers” value is “excessive co-localization”; the “phosphorylated ERK speckles around the ONL and RPE layers” value is recorded as “dramatically enhanced”. In the assay with C57BL/6N mice (mouse retinas treated with BCI), the “accumulation of p62 in mouse retinas” value was “significantly decreased”. The “p62 mRNA level” value in the assay on ARPE-19 cells [4] was “upregulated”.

Take `CO/C1=C\C(C)=C\[C@@H](C)[C@@H](O)[C@@H](C)C/C(C)=C/C=C/[C@H](OC)[C@@H]([C@@H](C)[C@@H](O)[C@H](C)[C@@]2(O)C[C@@H](O)[C@H](C)[C@@H](C(C)C)O2)OC1=O` [Baf-A1, Bafilomycin A1]: in the assay on ARPE-19 cells [3] (setting [6]), the LC3B-II expression result is recorded as “increase in LC3B-II expression in a dose-dependent manner” and the p62 expression levels entry is recorded as “remained unchanged”.
